Where a SMILES comes first, the peptide text is derived from it. Bridges are numbered along the chain shown (N, C = ends). [ ]: non-standard residue; d: D form. The star is where a group is joined. Phe(4-COOH) = N[C@@H](Cc1ccc(C(=O)O)cc1)C(=O)O; Bip = N[C@@H](Cc1ccc(-c2ccccc2)cc1)C(=O)O; NH(CH2)14COOH = O=C(O)CCCCCCCCCCCCCCN*; Phe(3-Me) = Cc1cccc(C[C@H](N)C(=O)O)c1; NH(CH2)12COOH = O=C(O)CCCCCCCCCCCCN*; Val(3-OH) = CC(C)(O)[C@H](N)C(=O)O; hArg = N=C(N)NCCCC[C@H](N)C(=O)O; 4Pal = N[C@@H](Cc1ccncc1)C(=O)O; Cha = N[C@@H](CC1CCCCC1)C(=O)O; Carboxymethyl = O=C(O)C*; NMeA = CN[C@@H](C)C(=O)O; Aun = NCCCCCCCCCCC(=O)O; Dab = NCC[C@H](N)C(=O)O; Dap = NC[C@H](N)C(=O)O; AEEA = NCCOCCOCC(=O)O

The results in this text go back to patent US20260070945A1, “MACROCYCLIC IMMUNOMODULATORS” (Bristol-Myers Squibb Company, priority 2022, published 2026).

The target of the experiment is T1, PD-1/PD-L1 interaction (PE-labeled human PD-L1-Ig binding to Jurkat cell line over-expressing human PD-1) (Homo sapiens, UniProt Q15116).
T1 construct: expressed in transfected cells; host or cells: Jurkat
T1 sequence (Q15116 25-288): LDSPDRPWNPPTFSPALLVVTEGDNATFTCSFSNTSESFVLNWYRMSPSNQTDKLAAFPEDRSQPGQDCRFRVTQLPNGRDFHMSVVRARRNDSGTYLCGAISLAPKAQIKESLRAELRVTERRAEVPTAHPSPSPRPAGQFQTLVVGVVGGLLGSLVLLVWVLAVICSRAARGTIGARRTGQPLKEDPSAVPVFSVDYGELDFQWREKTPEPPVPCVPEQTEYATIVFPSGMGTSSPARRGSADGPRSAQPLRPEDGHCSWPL
Nature of the experiment: Jurkat-PD-1 Cell Binding High-Content Screening Assay (CBA). The settings on record: Jurkat-hPD-1 cells, PE-labeled PD-L1-Ig 20 nM final; read-out: Jurkat HPD1 PDL1 IC50. In outline: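 Jurkat-hPD-1 cells (8×10^3/well) in DMEM with 10% fetal calf serum were preincubated with compound for 2 h at 37 °C. PE-labeled PD-L1-Ig was then added at 20 nM final for 1 h. Cells were fixed in paraformaldehyde with Hoechst 33342, washed and imaged by high-content imaging.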
As for `Cc1cccc(C[C@@H]2NC(=O)[C@H](CC(=O)O)NC(=O)[C@H](Cc3ccc(OCC(=O)O)cc3)NC(=O)[C@H](Cc3ccncc3)NC(=O)CSC[C@@H](C(=O)N[C@@H](CCN)C(=O)NCCOCCOCC(=O)NCCCCCCCCCCC(=O)O)NC(=O)[C@H](CCC(=O)O)NC(=O)[C@H](C(C)(C)O)NC(=O)[C@H](CC3CCCCC3)NC(=O)[C@H](CCN)NC(=O)[C@@H](CC(C)C)NC(=O)[C@H](C)N(C)C(=O)[C@H](Cc3ccc(OCC(=O)O)cc3)NC(=O)[C@H](Cc3ccc(-c4ccccc4)cc3)NC(=O)[C@H](Cc3ccc(OCC(=O)O)cc3)NC2=O)c1` [Example 1425] ({CH2CO}-[4Pal]Y(Carboxymethyl)D[Phe(3-Me)]Y(Carboxymethyl)[Bip]Y(Carboxymethyl)[NMeA][dL][Dab][Cha][Val(3-OH)]EC[Dab][AEEA][Aun]-OH; thioether N-14), the IC50 is 157 nM.

As to `Cc1cccc(C[C@@H]2NC(=O)[C@H](CC(=O)O)NC(=O)[C@H](Cc3ccc(OCC(=O)O)cc3)NC(=O)[C@H](CN)NC(=O)CSC[C@@H](C(=O)N[C@@H](CCN)C(=O)NCCOCCOCC(=O)NCCCCCCCCCCC(=O)O)NC(=O)[C@H](CCC(=O)O)NC(=O)[C@H](C(C)(C)O)NC(=O)[C@H](CC3CCCCC3)NC(=O)[C@H](CCN)NC(=O)[C@@H](CC(C)C)NC(=O)[C@H](C)N(C)C(=O)[C@H](Cc3ccc(OCC(=O)O)cc3)NC(=O)[C@H](Cc3ccc(-c4ccccc4)cc3)NC(=O)[C@H](Cc3ccc(OCC(=O)O)cc3)NC2=O)c1` [Example 1426] ({CH2CO}-[Dap]Y(Carboxymethyl)D[Phe(3-Me)]Y(Carboxymethyl)[Bip]Y(Carboxymethyl)[NMeA][dL][Dab][Cha][Val(3-OH)]EC[Dab][AEEA][Aun]-OH; thioether N-14), the IC50 turned out to be 18.1 nM.

For `Cc1cccc(C[C@@H]2NC(=O)[C@H](CC(=O)O)NC(=O)[C@H](Cc3ccc(C(=O)O)cc3)NC(=O)[C@H](Cc3ccncc3)NC(=O)CSC[C@@H](C(=O)N[C@@H](CCN)C(=O)NCCOCCOCC(=O)NCCCCCCCCCCC(=O)O)NC(=O)[C@H](CCC(=O)O)NC(=O)[C@H](C(C)(C)O)NC(=O)[C@H](CC3CCCCC3)NC(=O)[C@H](CCN)NC(=O)[C@@H](CC(C)C)NC(=O)[C@H](C)N(C)C(=O)[C@H](Cc3ccc(OCC(=O)O)cc3)NC(=O)[C@H](Cc3ccc(-c4ccccc4)cc3)NC(=O)[C@H](Cc3ccc(OCC(=O)O)cc3)NC2=O)c1` [Example 1427] ({CH2CO}-[4Pal][Phe(4-COOH)]D[Phe(3-Me)]Y(Carboxymethyl)[Bip]Y(Carboxymethyl)[NMeA][dL][Dab][Cha][Val(3-OH)]EC[Dab][AEEA][Aun]-OH; thioether N-14), the IC50 is 111 nM. To `Cc1cccc(C[C@@H]2NC(=O)[C@H](CC(=O)O)NC(=O)[C@H](Cc3ccc(C(=O)O)cc3)NC(=O)[C@H](Cc3ccncc3)NC(=O)CSC[C@@H](C(=O)N[C@@H](CC(N)=O)C(=O)NCCOCCOCC(=O)NCCCCCCCCCCC(=O)O)NC(=O)[C@H](CCC(=O)O)NC(=O)[C@H](C(C)(C)O)NC(=O)[C@H](CC3CCCCC3)NC(=O)[C@H](CCN)NC(=O)[C@@H](CC(C)C)NC(=O)[C@H](C)N(C)C(=O)[C@H](Cc3ccc(OCC(=O)O)cc3)NC(=O)[C@H](Cc3ccc(-c4ccccc4)cc3)NC(=O)[C@H](Cc3ccc(OCC(=O)O)cc3)NC2=O)c1` [Example 1428] ({CH2CO}-[4Pal][Phe(4-COOH)]D[Phe(3-Me)]Y(Carboxymethyl)[Bip]Y(Carboxymethyl)[NMeA][dL][Dab][Cha][Val(3-OH)]ECN[AEEA][Aun]-OH; thioether N-14) belongs 429 nM; to `CC(C)C[C@@H]1NC(=O)[C@H](Cc2c[nH]c3ccccc23)NC(=O)[C@H](CC(=O)O)NC(=O)[C@H](Cc2ccc(C(=O)O)cc2)NC(=O)[C@H](Cc2ccncc2)NC(=O)CSC[C@@H](C(=O)N[C@@H](CCN)C(=O)NCCOCCOCC(=O)NCCCCCCCCCCC(=O)O)NC(=O)[C@H](CCC(=O)O)NC(=O)[C@H](C(C)(C)O)NC(=O)[C@H](CC2CCCCC2)NC(=O)[C@H](CCN)NC(=O)[C@@H](CC(C)C)NC(=O)[C@H](C)N(C)C(=O)[C@H](C(C)C)NC(=O)[C@H](Cc2ccc(-c3ccccc3)cc2)NC1=O` [Example 1429] ({CH2CO}-[4Pal][Phe(4-COOH)]DWL[Bip]V[NMeA][dL][Dab][Cha][Val(3-OH)]EC[Dab][AEEA][Aun]-OH; thioether N-14), 143 nM. Turning to `Cc1cccc(C[C@@H]2NC(=O)[C@H](CC(=O)O)NC(=O)[C@H](Cc3ccc(C(=O)O)cc3)NC(=O)[C@H]([C@@H](C)O)NC(=O)CSC[C@@H](C(=O)N[C@@H](CCN)C(=O)NCCOCCOCC(=O)NCCOCCOCC(=O)NCCCCCCCCCCCCC(=O)O)NC(=O)[C@H](CCC(=O)O)NC(=O)[C@H](C(C)(C)O)NC(=O)[C@H](CC3CCCCC3)NC(=O)[C@H](CCN)NC(=O)[C@@H](CC(C)C)NC(=O)[C@H](C)N(C)C(=O)[C@H](Cc3ccc(C(=O)O)cc3)NC(=O)[C@H](Cc3ccc(-c4ccccc4)cc3)NC(=O)[C@H](Cc3ccc(C(=O)O)cc3)NC2=O)c1` [Example 1430] ({CH2CO}-T[Phe(4-COOH)]D[Phe(3-Me)][Phe(4-COOH)][Bip][Phe(4-COOH)][NMeA][dL][Dab][Cha][Val(3-OH)]EC[Dab][AEEA][AEEA]-{NH(CH2)12COOH}; thioether N-14), the IC50 amounted to 42.7 nM. Take `Cc1cccc(C[C@@H]2NC(=O)[C@H](CC(=O)O)NC(=O)[C@H](Cc3ccc(C(=O)O)cc3)NC(=O)[C@H]([C@@H](C)O)NC(=O)CSC[C@@H](C(=O)N[C@@H](CCN)C(=O)NCCOCCOCC(=O)NCCOCCOCC(=O)NCCCCCCCCCCCCCCC(=O)O)NC(=O)[C@H](CCC(=O)O)NC(=O)[C@H](C(C)(C)O)NC(=O)[C@H](CC3CCCCC3)NC(=O)[C@H](CCN)NC(=O)[C@@H](CC(C)C)NC(=O)[C@H](C)N(C)C(=O)[C@H](Cc3ccc(C(=O)O)cc3)NC(=O)[C@H](Cc3ccc(-c4ccccc4)cc3)NC(=O)[C@H](Cc3ccc(C(=O)O)cc3)NC2=O)c1` [Example 1431] ({CH2CO}-T[Phe(4-COOH)]D[Phe(3-Me)][Phe(4-COOH)][Bip][Phe(4-COOH)][NMeA][dL][Dab][Cha][Val(3-OH)]EC[Dab][AEEA][AEEA]-{NH(CH2)14COOH}; thioether N-14): the half-maximal inhibitory concentration (IC50) was determined as 962 nM.

Turning to `Cc1cccc(C[C@@H]2NC(=O)[C@H](CC(=O)O)NC(=O)[C@H](Cc3ccc(C(=O)O)cc3)NC(=O)[C@H]([C@@H](C)O)NC(=O)CSC[C@@H](C(=O)N[C@@H](CCN)C(=O)NCCOCCOCC(=O)NCCCCCCCCCCCCC(=O)O)NC(=O)[C@H](CCC(=O)O)NC(=O)[C@H](C(C)(C)O)NC(=O)[C@H](CC3CCCCC3)NC(=O)[C@H](CCN)NC(=O)[C@@H](CC(C)C)NC(=O)[C@H](C)N(C)C(=O)[C@H](Cc3ccc(C(=O)O)cc3)NC(=O)[C@H](Cc3ccc(-c4ccccc4)cc3)NC(=O)[C@H](Cc3ccc(C(=O)O)cc3)NC2=O)c1` [Example 1432] ({CH2CO}-T[Phe(4-COOH)]D[Phe(3-Me)][Phe(4-COOH)][Bip][Phe(4-COOH)][NMeA][dL][Dab][Cha][Val(3-OH)]EC[Dab][AEEA]-{NH(CH2)12COOH}; thioether N-14), the half-inhibitory concentration (IC50) stood at 105 nM. As to `Cc1cccc(C[C@@H]2NC(=O)[C@H](CC(=O)O)NC(=O)[C@H](Cc3ccc(C(=O)O)cc3)NC(=O)[C@H](Cc3ccncc3)NC(=O)CSC[C@@H](C(=O)N[C@@H](CCN)C(=O)NCCOCCOCC(=O)NCCCCCCCCCCCCC(=O)O)NC(=O)[C@H](CO)NC(=O)[C@H](C(C)(C)O)NC(=O)[C@H](CC3CCCCC3)NC(=O)[C@H](CCN)NC(=O)[C@@H](CC(C)C)NC(=O)[C@H](C)N(C)C(=O)[C@H](Cc3ccc(OCC(=O)O)cc3)NC(=O)[C@H](Cc3ccc(-c4ccccc4)cc3)NC(=O)[C@H](Cc3ccc(OCC(=O)O)cc3)NC2=O)c1` [Example 1434] ({CH2CO}-[4Pal][Phe(4-COOH)]D[Phe(3-Me)]Y(Carboxymethyl)[Bip]Y(Carboxymethyl)[NMeA][dL][Dab][Cha][Val(3-OH)]SC[Dab][AEEA]-{NH(CH2)12COOH}; thioether N-14), the 50% inhibitory concentration (IC50) was found to be 915 nM.

Take `CC(C)C[C@@H]1NC(=O)[C@H](Cc2c[nH]c3ccccc23)NC(=O)[C@H](CC(=O)O)NC(=O)[C@H](Cc2ccc(C(=O)O)cc2)NC(=O)[C@H](CCCCNC(=N)N)NC(=O)CSC[C@@H](C(=O)N[C@@H](C)C(=O)N[C@@H](CCN)C(=O)NCCCCCCCCCCCCCCC(=O)O)NC(=O)[C@H](CO)NC(=O)[C@H](C(C)C)NC(=O)[C@H](CC2CCCCC2)NC(=O)[C@H](CCN)NC(=O)[C@@H](CC(C)C)NC(=O)[C@H](C)N(C)C(=O)[C@H](C(C)C)NC(=O)[C@H](Cc2ccc(-c3ccccc3)cc2)NC1=O` [Example 2001] ({CH2CO}-[hArg][Phe(4-COOH)]DWL[Bip]V[NMeA][dL][Dab][Cha]VSCA[Dab]-{NH(CH2)14COOH}; thioether N-14): the 50% inhibitory concentration (IC50) was found to be 123 nM. With `CC(C)C[C@@H]1NC(=O)[C@H](Cc2c[nH]c3ccccc23)NC(=O)[C@H](CC(=O)O)NC(=O)[C@H](Cc2ccc(OCC(=O)O)cc2)NC(=O)[C@H](CCCCNC(=N)N)NC(=O)CSC[C@@H](C(=O)N[C@@H](C)C(=O)N[C@@H](CCN)C(=O)NCCCCCCCCCCCCCCC(=O)O)NC(=O)[C@H](CO)NC(=O)[C@H](C(C)C)NC(=O)[C@H](CC2CCCCC2)NC(=O)[C@H](CCN)NC(=O)[C@@H](CC(C)C)NC(=O)[C@H](C)N(C)C(=O)[C@H](C(C)C)NC(=O)[C@H](Cc2ccc(-c3ccccc3)cc2)NC1=O` [Example 2002] ({CH2CO}-[hArg]Y(Carboxymethyl)DWL[Bip]V[NMeA][dL][Dab][Cha]VSCA[Dab]-{NH(CH2)14COOH}; thioether N-14), the IC50 came out at 65.4 nM.

As for `CC(C)C[C@@H]1NC(=O)[C@H](Cc2c[nH]c3ccccc23)NC(=O)[C@H](CC(=O)O)NC(=O)[C@H](Cc2ccc(OCC(=O)O)cc2)NC(=O)[C@H](CCCCNC(=N)N)NC(=O)CSC[C@@H](C(=O)N[C@@H](C)C(=O)N[C@@H](CCCCN)C(=O)NCCCCCCCCCCCCCCC(=O)O)NC(=O)[C@H](CO)NC(=O)[C@H](C(C)C)NC(=O)[C@H](CC(C)C)NC(=O)[C@H](Cc2c[nH]cn2)NC(=O)[C@@H](CC(C)C)NC(=O)[C@H](C)N(C)C(=O)[C@H](C(C)C)NC(=O)[C@H](Cc2ccc(-c3ccccc3)cc2)NC1=O` [Example 2003] ({CH2CO}-[hArg]Y(Carboxymethyl)DWL[Bip]V[NMeA][dL]HLVSCAK-{NH(CH2)14COOH}; thioether N-14), the IC50 came out at 290 nM.
